A value given as a limit tells only on which side of the number the result lay.

What all share (format): cell-based
One test deals with T1, human TLR9 (Homo sapiens, UniProt Q9NR96).
T1 construct: host or cells: HEK-Blue cells
T1 sequence (Q9NR96 26-1032): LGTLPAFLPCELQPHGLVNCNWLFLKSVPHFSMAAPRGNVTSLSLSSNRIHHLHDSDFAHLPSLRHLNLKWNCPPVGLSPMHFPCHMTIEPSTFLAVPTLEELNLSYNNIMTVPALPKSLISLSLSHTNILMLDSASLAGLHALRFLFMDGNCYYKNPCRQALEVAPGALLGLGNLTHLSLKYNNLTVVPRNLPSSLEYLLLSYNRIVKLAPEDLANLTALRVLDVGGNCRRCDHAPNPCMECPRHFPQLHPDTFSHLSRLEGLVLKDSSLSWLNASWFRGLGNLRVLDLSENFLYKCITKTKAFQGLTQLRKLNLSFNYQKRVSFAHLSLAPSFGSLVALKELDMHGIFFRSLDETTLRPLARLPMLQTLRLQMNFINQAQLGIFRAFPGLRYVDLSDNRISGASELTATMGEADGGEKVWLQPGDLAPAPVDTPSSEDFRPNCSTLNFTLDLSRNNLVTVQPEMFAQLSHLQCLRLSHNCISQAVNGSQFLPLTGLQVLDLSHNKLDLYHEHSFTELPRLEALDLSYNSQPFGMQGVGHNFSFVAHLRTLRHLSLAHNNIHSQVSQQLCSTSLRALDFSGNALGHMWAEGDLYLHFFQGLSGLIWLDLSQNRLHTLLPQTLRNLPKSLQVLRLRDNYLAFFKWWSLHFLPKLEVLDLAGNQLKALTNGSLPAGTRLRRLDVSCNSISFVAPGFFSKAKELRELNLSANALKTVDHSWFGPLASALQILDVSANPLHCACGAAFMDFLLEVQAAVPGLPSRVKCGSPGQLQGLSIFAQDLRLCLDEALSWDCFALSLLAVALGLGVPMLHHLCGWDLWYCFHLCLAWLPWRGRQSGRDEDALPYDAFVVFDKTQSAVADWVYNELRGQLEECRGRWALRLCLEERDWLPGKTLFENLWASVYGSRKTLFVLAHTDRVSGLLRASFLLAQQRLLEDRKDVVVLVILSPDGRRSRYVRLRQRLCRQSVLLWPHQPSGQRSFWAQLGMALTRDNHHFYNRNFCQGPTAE
Briefly: TLR9 inhibition reporter assay (HEK-Blue SEAP). The following applies: HEK-Blue cells overexpressing human TLR9, stimulated with ODN2006 5 nM, 22 hour incubation. In short, it runs like this:
(§1)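 HEK-Blue cells overexpressing the receptor, with an NF-κB/AP-1-driven SEAP reporter, were pre-treated with compound (0.05 nM to 50 μM) for 30 min at room temperature. Stimulation used gardiquimod 7.5 μM (TLR7), R848 15.9 μM (TLR8) or ODN2006 5 nM (TLR9), followed by 22 h at 37 °C.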
For orientation: A reporter such as luciferase makes a cellular process visible.

The next test addresses T2, human TLR8 (Homo sapiens, UniProt Q9NR97).
T2 construct: host or cells: HEK-Blue cells
T2 sequence (Q9NR97 27-1041): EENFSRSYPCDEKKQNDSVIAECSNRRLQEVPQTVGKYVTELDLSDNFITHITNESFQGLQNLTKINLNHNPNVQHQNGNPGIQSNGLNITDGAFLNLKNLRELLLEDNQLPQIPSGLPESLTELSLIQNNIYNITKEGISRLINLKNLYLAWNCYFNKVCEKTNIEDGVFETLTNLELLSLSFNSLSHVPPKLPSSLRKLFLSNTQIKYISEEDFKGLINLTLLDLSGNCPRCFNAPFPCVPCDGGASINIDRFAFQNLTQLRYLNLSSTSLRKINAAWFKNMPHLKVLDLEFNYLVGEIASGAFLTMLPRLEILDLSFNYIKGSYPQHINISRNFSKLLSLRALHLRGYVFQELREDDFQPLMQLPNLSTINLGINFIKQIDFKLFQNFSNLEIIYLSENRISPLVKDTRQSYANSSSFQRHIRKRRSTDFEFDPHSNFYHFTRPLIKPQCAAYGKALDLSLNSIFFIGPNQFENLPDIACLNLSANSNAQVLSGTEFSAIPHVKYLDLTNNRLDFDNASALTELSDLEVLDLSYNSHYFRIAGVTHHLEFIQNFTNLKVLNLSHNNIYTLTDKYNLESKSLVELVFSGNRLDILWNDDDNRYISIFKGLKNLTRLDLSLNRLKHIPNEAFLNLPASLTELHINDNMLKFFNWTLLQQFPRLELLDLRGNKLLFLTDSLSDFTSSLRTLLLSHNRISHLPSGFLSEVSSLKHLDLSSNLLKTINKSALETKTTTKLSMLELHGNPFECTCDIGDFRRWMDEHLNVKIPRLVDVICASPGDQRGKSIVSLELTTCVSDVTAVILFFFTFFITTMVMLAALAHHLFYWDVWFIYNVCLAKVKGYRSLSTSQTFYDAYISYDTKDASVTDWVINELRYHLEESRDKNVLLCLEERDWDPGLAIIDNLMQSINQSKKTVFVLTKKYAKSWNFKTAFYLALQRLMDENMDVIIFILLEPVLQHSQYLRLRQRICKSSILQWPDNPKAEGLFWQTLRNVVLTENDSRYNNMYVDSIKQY
Briefly: TLR8 inhibition reporter assay (HEK-Blue SEAP). The following applies: HEK-Blue cells overexpressing human TLR8, stimulated with R848 15.9 μM, 22 hour incubation. The method in brief:
as §1

The next test addresses T3, human TLR7 (Homo sapiens, UniProt Q9NYK1).
T3 construct: host or cells: HEK-Blue cells
T3 sequence (Q9NYK1 27-1049): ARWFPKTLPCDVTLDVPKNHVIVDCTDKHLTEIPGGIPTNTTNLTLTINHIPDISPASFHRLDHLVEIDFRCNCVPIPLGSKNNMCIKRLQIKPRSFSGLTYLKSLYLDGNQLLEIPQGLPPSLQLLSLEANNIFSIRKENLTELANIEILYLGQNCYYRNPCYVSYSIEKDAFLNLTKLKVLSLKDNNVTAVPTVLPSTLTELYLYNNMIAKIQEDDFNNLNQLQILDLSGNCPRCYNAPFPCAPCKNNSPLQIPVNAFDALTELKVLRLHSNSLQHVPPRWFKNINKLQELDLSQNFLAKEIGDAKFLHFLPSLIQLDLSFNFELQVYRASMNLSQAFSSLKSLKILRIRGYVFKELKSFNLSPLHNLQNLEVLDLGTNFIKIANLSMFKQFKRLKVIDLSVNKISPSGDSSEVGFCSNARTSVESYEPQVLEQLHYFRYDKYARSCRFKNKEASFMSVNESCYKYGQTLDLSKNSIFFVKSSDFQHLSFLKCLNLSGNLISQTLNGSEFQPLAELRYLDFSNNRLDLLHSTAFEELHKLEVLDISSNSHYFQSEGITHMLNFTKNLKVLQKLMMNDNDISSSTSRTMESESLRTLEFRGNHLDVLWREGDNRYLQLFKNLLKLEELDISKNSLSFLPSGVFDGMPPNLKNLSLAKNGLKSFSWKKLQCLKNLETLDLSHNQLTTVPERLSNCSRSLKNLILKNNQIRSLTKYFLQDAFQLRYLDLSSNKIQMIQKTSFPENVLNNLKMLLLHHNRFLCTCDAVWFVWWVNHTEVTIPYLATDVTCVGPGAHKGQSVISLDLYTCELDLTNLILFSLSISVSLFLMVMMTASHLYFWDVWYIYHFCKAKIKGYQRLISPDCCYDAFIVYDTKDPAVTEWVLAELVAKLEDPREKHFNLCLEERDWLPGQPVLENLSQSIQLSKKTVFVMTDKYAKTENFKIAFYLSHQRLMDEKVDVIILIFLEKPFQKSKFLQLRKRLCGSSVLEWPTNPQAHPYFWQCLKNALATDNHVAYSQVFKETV
Briefly: TLR7 inhibition reporter assay (HEK-Blue SEAP). Conditions: HEK-Blue cells overexpressing human TLR7, stimulated with gardiquimod 7.5 μM, 22 hour incubation. The method in brief:
as §1

The term IC50 denotes the point on the concentration scale where inhibition reaches its midpoint. A low value points to greater potency. On to `Cc1cc2c(C3CCNC3)n[nH]c2cc1-c1cc(C)c2ncnn2c1` (stereo not drawn) [Example 26, 8-methyl-6-(5-methyl-3-(pyrrolidin-3-yl)-1H-indazol-6-yl)-[1,2,4]triazolo[1,5-a]pyridine], for which the IC50 was found to be 1320 nM on human TLR9, 1.5 nM against human TLR8 and 18.8 nM at human TLR7.

Regarding `Cc1cc(-c2cc(C)c3ncnn3c2)cc2[nH]nc(C3CCNCC3)c12` [Example 27, 8-methyl-6-(4-methyl-3-(piperidin-4-yl)-1H-indazol-6-yl)-[1,2,4]triazolo[1,5-a]pyridine], the figures for the half-inhibitory concentration (IC50) against human TLR9, against human TLR8 and at human TLR7 were 650 nM, 25.9 nM and 6.6 nM, respectively.

Take `Cc1cc2c(C3CCC(NCCS(C)(=O)=O)CC3)n[nH]c2cc1-c1cc(C)c2ncnn2c1` (stereo not drawn) [Example 30, 4-(5-methyl-6-(8-methyl-[1,2,4]triazolo[1,5-a]pyridin-6-yl)-1H-indazol-3-yl)-N-(2-(methylsulfonyl)ethyl) cyclohexan-1-amine]: the IC50 was 6740 nM at human TLR9, 0.4 nM against human TLR8 and 15.3 nM at human TLR7.

Take `Cc1cc2c(C3CCC(NCCS(C)(=O)=O)CC3)n[nH]c2cc1-c1cc(C)c2ncnn2c1` (stereo not drawn) [Example 31, 4-(5-methyl-6-(8-methyl-[1,2,4]triazolo[1,5-a]pyridin-6-yl)-1H-indazol-3-yl)-N-(2-(methylsulfonyl)ethyl)cyclohexan-1-amine]: the IC50 on human TLR9 came to 6120 nM; against human TLR8, 0.6 nM; on human TLR7 it was 39.8 nM.

Consider `Cc1cc2c(C3CCC(NC4CC4)CC3)n[nH]c2cc1-c1cc(C)c2ncnn2c1` (stereo not drawn) [Example 36, N-cyclopropyl-4-(5-methyl-6-(8-methyl-[1,2,4]triazolo[1,5-a]pyridin-6-yl)-1H-indazol-3-yl) cyclohexan-1-amine], for which the IC50 against human TLR9 was determined as 3340 nM; at human TLR8, 0.2 nM; against human TLR7, 7 nM.

Consider `Cc1cc2c(C3CCC(NC4CC4)CC3)n[nH]c2cc1-c1cc(C)c2ncnn2c1` (stereo not drawn) [Example 37, N-cyclopropyl-4-(5-methyl-6-(8-methyl-[1,2,4]triazolo[1,5-a]pyridin-6-yl)-1H-indazol-3-yl)cyclohexan-1-amine], for which the IC50 against human TLR9 is 5140 nM; on human TLR8, 0.4 nM; against human TLR7, 12.4 nM.

With `Cc1cc2c(C3CCCN(C(=O)CN(C)C)C3)n[nH]c2cc1-c1cc(C)c2ncnn2c1` (stereo not drawn) [Example 40, 2-(dimethylamino)-1-(3-(5-methyl-6-(8-methyl-[1,2,4]triazolo[1,5-a]pyridin-6-yl)-1H-indazol-3-yl)piperidin-1-yl)ethan-1-one], the figures for the IC50 against human TLR9, against human TLR8 and against human TLR7 were 13000 nM, 4.6 nM and 23.4 nM, respectively.

Regarding `Cc1cc2c(C3CCCN(CC(=O)N(C)C)C3)n[nH]c2cc1-c1cc(C)c2ncnn2c1` (stereo not drawn) [Example 41, N,N-dimethyl-2-(3-(5-methyl-6-(8-methyl-[1,2,4]triazolo[1,5-a]pyridin-6-yl)-1H-indazol-3-yl)piperidin-1-yl) acetamide], the IC50 against human TLR9 is 7300 nM; on human TLR8, 1.9 nM; on human TLR7, 20 nM.

In the case of `Cc1cc2c(C3CCCN(C4COC4)C3)n[nH]c2cc1-c1cc(C)c2ncnn2c1` (stereo not drawn) [Example 42, 8-methyl-6-(5-methyl-3-(1-(oxetan-3-yl)piperidin-3-yl)-1H-indazol-6-yl)-[1,2,4]triazolo[1,5-a]pyridine], the results for the IC50 against human TLR9, against human TLR8 and against human TLR7 were 14500 nM, 0.9 nM and 83.6 nM, respectively.

Regarding `CNC1CCC(c2n[nH]c3cc(-c4cc(C)c5ncnn5c4)c(C)cc23)CC1` (stereo not drawn) [Example 44, N-methyl-4-(5-methyl-6-(8-methyl-[1,2,4]triazolo[1,5-a]pyridin-6-yl)-1H-indazol-3-yl)cyclohexan-1-amine], the figures for the IC50 against human TLR9, on human TLR8 and against human TLR7 were 5490 nM, 1.9 nM and 46.3 nM, respectively.

Regarding `COc1cc(-c2cc3[nH]nc(C4CCCNC4)c3cc2C)cn2ncnc12` (stereo not drawn) [Example 45, 8-methoxy-6-(5-methyl-3-(piperidin-3-yl)-1H-indazol-6-yl)-[1,2,4]triazolo[1,5-a]pyridine], the half-maximal inhibitory concentration (IC50) is not below 50000 nM against human TLR9, 0.7 nM at human TLR8 and 19.2 nM against human TLR7.

(Values after US12172995B2, “Substituted indole and indazole compounds” (BRISTOL-MYERS SQUIBB COMPANY, priority 2018, dated 2024).)
